Source: patent publication US12465590B2, “Oxalamido-substituted tricyclic inhibitors of hepatitis b virus” (priority 2019, dated 2025)

Tested on: HBV
Assay: HBV inhibition assay in HepAD38 cells (extracellular HBV DNA by direct qPCR)
Format: cell-based, HBV genotype D subtype ayw
Conditions: 96 hours, read-out: HBV inh EC50
From the text: HepAD38 cell line (Ladner et al., Antimicrob Agents Chemother, 1997, 41, 1715-20) was used for HBV inhibition assays. HepAD38 is a subclone, derived from hepatoblastoma cell line HepG2 (ATCC® Number: HB-8065), that expresses HBV genome (genotype D subtype ayw) under the transcriptional control of a tetracycline-responsive promoter in a TET-OFF system: addition of doxycycline, an antibiotic belonging to the class of tetracycline, suppresses HBV replication, while its removal switches on the process allowing HBV viral particles release in the cell supernatant. HepAD38 cell line is maintained in DMEM/F12, supplemented with 10% of fetal bovine serum, 1% of glutamine, 1% of penicillin/streptomycin, 0.4 mg/ml G418 and 0.3 ug/ml tetracycline. For the HBV inhibition assay, doxycycline-free medium is used in order to allow virion production.
HBV inhibition activity in vitro was performed in 96 multiwell plates. During the initial (primary) screening, compounds were first tested in triplicates at concentrations of 0.02 μM, 0.1 μM, 0.5 μM and 1 μM. For selected compounds, an 8-point dose-response curve was obtained using 1:2 serial dilutions (starting from 0.01 μM, 0.1 μM, 0.4 μM or 5 μM, depending on the degree of inhibition observed during the primary screening). From the dose-response curves, half maximal effective concentration (EC50) could be calculated (see also below).
In more detail, compounds—typically dissolved in DMSO stock solutions—were diluted to 2× the final desired concentration in 100 μl of the above medium (without doxycycline) and plated in three replicates in the 96-well plates.
Simultaneously, HepAD38 cells—extensively pre-washed in doxycycline-free medium in order to induce HBV production—were suspended at 2*10^4 cells in 100 μl of doxycycline-free medium and added to each well of the plate, to yield a final assay volume of 200 μl.
DMSO, used for stock solutions and compounds dilutions, was always present in the assays at a final concentration of 0.5%.
Plates were then incubated 96 hours at 37° C. and then subjected to cell viability assays and extracellular HBV quantification, in order to evaluate both the cytotoxic potential and the antiviral activity of compounds.
Cytotoxicity was assessed by a commercial fluorescence assay that measures the metabolic activity of cells, directly related to cell viability (Cell Titer Blue, Promega). For each compound, cytotoxicity was evaluated at the same concentration employed to evaluate its anti-HBV activity. Anti-HBV activity was evaluated by quantification of extracellular HBV DNA with direct qPCR. In particular, supernatant was collected and centrifuged for cell debris clarification, viral DNA was extracted from virions by addition of lysis buffer (1 mM 1,4-dithiothreitol, 0.2% sodium dodecyl sulphate) and incubated at 95° C. for 10 min. Samples were then diluted 1:40 and real time PCR amplification was performed with SYBR green assay (Power SYBR™ Green PCR Master Mix-Thermo Fisher Scientific) and specific HBV primer (HBV-DF:5′-[…]-3′ (SEQ ID No. 1), HBV-DR:5′-[…]-3′ (SEQ ID No. 2)).
Antiviral activity data for each compound are reported as EC50 value (see Table 1 legend). Excel and Graphpad Prism programs are typically used for data elaboration and EC50 calculation.

Question: With `Cc1cc(NC(=O)c2c3c(cn2C)S(=O)(=O)NC2CN(C(=O)C(=O)N[C@@H](C)C(F)(F)F)CCC2CO3)ccc1F` (mixture of isomers) [Example E71, Trans-N-(4-fluoro-3-methylphenyl)-2-methyl-7-(2-oxo-2-(((S)-1,1,1-trifluoropropan-2-yl)amino)acetyl)-5,5a,6,7,8,9,9a,10-octahydro-2H-pyrido[3,4-f]pyrrolo[3,4-b][1,4,5]oxathiazocine-1-carboxamide 4,4-dioxide] as the molecule, how does the EC50 read?
Answer: Its EC50 is < 500 nM.

Same assay, conditions: Hepatitis B virus, 96 hours, read-out: HBV inh EC50

Question: With `Cc1cc(NC(=O)c2c3c(cn2C)S(=O)(=O)N[C@H]2CN(C(=O)C(=O)N[C@H](C)C(F)(F)F)C[C@@]2(C)CO3)ccc1F` [Example E74, (3aR,10aR)—N-(4-fluoro-3-methylphenyl)-7,10a-dimethyl-2-(2-oxo-2-(((R)-1,1,1-trifluoropropan-2-yl)amino)acetyl)-2,3,3a,4,10,10a-hexahydro-1H,7H-dipyrrolo[3,4-b:3′,4′-f][1,4,5]oxathiazocine-8-carboxamide 5,5-dioxide] as the molecule, how does the EC50 read?
Answer: The EC50 was < 500 nM.

Question: With `Cc1cc(NC(=O)c2c3c(cn2C)S(=O)(=O)NC2CN(C(=O)C(=O)N[C@H](C)C(F)(F)F)CCC2CO3)ccc1F` (mixture of isomers) [Example E60, Cis-N-(4-fluoro-3-methylphenyl)-2-methyl-7-(2-oxo-2-(((R)-1,1,1-trifluoropropan-2-yl)amino)acetyl)-5,5a,6,7,8,9,9a,10-octahydro-2H-pyrido[3,4-f]pyrrolo[3,4-b][1,4,5]oxathiazocine-1-carboxamide 4,4-dioxide] as the molecule, how does the EC50 read?
Answer: Its EC50 is < 500 nM.

Question: `Cc1cc(NC(=O)c2c3c(cn2C)S(=O)(=O)NC2CCN(C(=O)C(=O)N[C@H](C)C(F)(F)F)CC2CO3)ccc1F` (mixture of isomers) [Example E59, Trans-N-(4-fluoro-3-methylphenyl)-2-methyl-8-(2-oxo-2-(((R)-1,1,1-trifluoropropan-2-yl)amino)acetyl)-5,5a,6,7,8,9,9a,10-octahydro-2H-pyrido[4,3-f]pyrrolo[3,4-b][1,4,5]oxathiazocine-1-carboxamide 4,4-dioxide] was tested. Which EC50 did it give?
Answer: Its EC50 is < 500 nM.

Question: Which EC50 does the source give for `Cc1cc(NC(=O)c2c3c(cn2C)S(=O)(=O)NC2(C)CN(C(=O)C(=O)N[C@H](C)C(F)(F)F)CC2CO3)ccc1F` (stereo in doubt) [Example E27, Cis-N-(4-fluoro-3-methylphenyl)-3a,7-dimethyl-2-(2-oxo-2-(((R)-1,1,1-trifluoropropan-2-yl)amino)acetyl)-2,3,3a,4,10,10a-hexahydro-1H,7H-dipyrrolo[3,4-b:3 ‘,4’-f][1,4,5]oxathiazocine-8-carboxamide 5,5-dioxide] here?
Answer: The EC50 was < 500 nM.

Question: With `Cc1cc(NC(=O)c2c3c(cn2C)S(=O)(=O)NC2CCN(C(=O)C(=O)N[C@@H](C)C(F)(F)F)CC2CO3)ccc1F` (mixture of isomers) [Example E56, Trans-N-(4-fluoro-3-methylphenyl)-2-methyl-8-(2-oxo-2-(((S)-1,1,1-trifluoropropan-2-yl)amino)acetyl)-5,5a,6,7,8,9,9a,10-octahydro-2H-pyrido[4,3-f]pyrrolo[3,4-b][1,4,5]oxathiazocine-1-carboxamide 4,4-dioxide] as the molecule, how does the EC50 read?
Answer: Its EC50 is < 500 nM.

Question: Which EC50 does the source give for `Cc1cc(NC(=O)c2c3c(cn2C)S(=O)(=O)N[C@H]2CN(C(=O)C(=O)N[C@H](C)C(F)(F)F)C[C@@]2(O)CO3)ccc1F` [Example E75, (3aS,10aS)—N-(4-fluoro-3-methylphenyl)-10a-hydroxy-7-methyl-2-(2-oxo-2-(((R)-1,1,1-trifluoropropan-2-yl)amino)acetyl)-2,3,3a,4,10,10a-hexahydro-1H,7H-dipyrrolo[3,4-b:3′,4′-f][1,4,5]oxathiazocine-8-carboxamide 5,5-dioxide] here?
Answer: Its EC50 is < 500 nM.

Question: For `Cc1cc(NC(=O)c2c3c(cn2C)S(=O)(=O)NC2CN(C(=O)C(=O)NC4CC4)CCC2CO3)ccc1F` (racemic) [Example E64, Cis-7-(2-(cyclopropylamino)-2-oxoacetyl)-N-(4-fluoro-3-methylphenyl)-2-methyl-5,5a,6,7,8,9,9a,10-octahydro-2H-pyrido[3,4-f]pyrrolo[3,4-b][1,4,5]oxathiazocine-1-carboxamide 4,4-dioxide], which EC50 is on record?
Answer: Its EC50 is < 500 nM.
